Results taken from ChEMBL document CHEMBL1145498, “A systematic interaction map of validated kinase inhibitors with Ser/Thr kinases” (Proc Natl Acad Sci U S A, 2007).

Legend:
[1] = biological target: T1, Serine/threonine-protein kinase 17A (Homo sapiens) (UniProt Q9UEE5)
T1 sequence (whole entry): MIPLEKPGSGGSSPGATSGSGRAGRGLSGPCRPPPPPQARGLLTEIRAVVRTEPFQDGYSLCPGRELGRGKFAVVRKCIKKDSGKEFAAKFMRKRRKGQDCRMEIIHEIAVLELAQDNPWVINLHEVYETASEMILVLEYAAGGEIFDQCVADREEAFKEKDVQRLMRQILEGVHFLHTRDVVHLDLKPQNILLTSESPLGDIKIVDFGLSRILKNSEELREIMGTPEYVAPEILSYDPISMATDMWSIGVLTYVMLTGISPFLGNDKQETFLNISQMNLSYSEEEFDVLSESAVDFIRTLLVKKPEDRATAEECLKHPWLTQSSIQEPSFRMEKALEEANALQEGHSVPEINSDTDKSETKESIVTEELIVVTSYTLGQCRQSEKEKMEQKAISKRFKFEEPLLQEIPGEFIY

[2] = biological target: T2, Mitogen-activated protein kinase kinase kinase 5 (Homo sapiens) (UniProt Q99683)
T2 sequence (whole entry): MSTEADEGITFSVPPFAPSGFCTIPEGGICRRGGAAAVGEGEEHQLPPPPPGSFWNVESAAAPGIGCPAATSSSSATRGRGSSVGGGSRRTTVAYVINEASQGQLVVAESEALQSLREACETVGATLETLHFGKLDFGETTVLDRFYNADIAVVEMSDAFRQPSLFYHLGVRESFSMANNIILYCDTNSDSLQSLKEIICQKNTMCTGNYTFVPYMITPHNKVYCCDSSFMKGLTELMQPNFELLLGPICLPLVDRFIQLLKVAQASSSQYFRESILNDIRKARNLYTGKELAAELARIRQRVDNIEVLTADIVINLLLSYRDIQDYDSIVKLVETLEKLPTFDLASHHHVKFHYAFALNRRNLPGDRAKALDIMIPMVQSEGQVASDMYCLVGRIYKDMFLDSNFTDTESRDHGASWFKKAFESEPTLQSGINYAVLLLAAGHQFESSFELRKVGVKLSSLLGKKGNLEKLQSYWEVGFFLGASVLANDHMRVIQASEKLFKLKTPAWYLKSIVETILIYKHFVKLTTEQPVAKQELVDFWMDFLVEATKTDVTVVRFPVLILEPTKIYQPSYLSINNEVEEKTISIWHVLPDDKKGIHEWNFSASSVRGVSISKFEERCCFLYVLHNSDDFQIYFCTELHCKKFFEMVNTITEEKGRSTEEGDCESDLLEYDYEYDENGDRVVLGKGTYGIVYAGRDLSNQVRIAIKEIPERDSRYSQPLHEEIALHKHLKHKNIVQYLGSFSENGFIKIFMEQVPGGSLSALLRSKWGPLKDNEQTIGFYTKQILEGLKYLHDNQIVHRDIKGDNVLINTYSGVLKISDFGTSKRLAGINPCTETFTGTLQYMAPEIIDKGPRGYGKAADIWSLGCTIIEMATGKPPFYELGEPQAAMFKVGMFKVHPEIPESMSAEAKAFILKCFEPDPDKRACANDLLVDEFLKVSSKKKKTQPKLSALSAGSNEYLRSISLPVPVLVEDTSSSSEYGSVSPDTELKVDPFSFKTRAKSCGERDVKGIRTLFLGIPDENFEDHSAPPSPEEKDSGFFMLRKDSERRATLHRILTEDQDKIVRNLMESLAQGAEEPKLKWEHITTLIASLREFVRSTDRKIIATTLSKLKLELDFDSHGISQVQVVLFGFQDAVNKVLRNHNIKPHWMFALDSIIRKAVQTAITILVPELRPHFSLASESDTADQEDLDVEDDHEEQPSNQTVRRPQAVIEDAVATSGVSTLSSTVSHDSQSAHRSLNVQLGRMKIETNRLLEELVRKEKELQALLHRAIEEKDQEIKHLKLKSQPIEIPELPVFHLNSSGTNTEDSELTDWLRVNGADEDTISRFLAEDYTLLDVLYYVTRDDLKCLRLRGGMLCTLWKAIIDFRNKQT

[3] = biological target: Serine/threonine-protein kinase 26 (Homo sapiens) (UniProt Q9P289)
Serine/threonine-protein kinase 26 (Homo sapiens), sequence (Q9P289 2-416 limits assumed): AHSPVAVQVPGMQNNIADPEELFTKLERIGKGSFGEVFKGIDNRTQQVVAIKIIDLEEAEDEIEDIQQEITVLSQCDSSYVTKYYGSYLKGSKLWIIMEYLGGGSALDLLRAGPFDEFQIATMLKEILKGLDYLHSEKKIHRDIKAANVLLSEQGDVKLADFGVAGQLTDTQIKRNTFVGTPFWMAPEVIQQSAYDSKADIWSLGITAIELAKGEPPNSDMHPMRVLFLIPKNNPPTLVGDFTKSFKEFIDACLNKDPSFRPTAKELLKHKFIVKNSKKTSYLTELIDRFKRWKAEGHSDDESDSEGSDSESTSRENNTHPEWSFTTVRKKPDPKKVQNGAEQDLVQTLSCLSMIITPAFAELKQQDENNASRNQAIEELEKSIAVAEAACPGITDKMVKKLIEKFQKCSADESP

[4] = biological target: Death-associated protein kinase 3 (Homo sapiens) (UniProt O43293)
Death-associated protein kinase 3 (Homo sapiens), sequence (O43293 whole entry, looked up): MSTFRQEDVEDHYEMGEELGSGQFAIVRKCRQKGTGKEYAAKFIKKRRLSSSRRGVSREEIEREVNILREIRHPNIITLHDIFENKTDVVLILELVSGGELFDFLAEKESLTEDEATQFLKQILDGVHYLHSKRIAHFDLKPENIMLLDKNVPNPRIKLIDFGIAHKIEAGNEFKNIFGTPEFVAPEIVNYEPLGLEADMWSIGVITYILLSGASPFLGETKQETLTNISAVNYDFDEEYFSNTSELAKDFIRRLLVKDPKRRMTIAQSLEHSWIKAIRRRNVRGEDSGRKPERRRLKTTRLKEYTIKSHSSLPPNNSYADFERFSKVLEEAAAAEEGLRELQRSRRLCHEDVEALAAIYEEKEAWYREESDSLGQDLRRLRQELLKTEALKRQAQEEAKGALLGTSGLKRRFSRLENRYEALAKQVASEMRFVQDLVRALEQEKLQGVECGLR

[5] = biological target: Cyclin-dependent kinase 2 (Homo sapiens, UniProt P24941)
[6] = biological target: T3, Serine/threonine-protein kinase VRK1 (Homo sapiens) (UniProt Q99986)
T3 sequence (whole entry): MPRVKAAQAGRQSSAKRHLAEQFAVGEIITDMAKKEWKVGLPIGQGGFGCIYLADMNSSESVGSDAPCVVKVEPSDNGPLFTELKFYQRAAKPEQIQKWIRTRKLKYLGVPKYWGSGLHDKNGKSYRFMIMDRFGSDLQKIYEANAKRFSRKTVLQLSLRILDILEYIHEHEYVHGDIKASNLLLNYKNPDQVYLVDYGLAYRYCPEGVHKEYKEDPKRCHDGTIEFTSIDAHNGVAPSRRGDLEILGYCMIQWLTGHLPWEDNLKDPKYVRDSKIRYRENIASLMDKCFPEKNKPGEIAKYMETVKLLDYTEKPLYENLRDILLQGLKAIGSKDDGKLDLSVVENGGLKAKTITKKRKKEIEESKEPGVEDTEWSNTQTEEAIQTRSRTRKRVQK

[7] = biological target: Mitogen-activated protein kinase 3 (Homo sapiens, UniProt P27361)
Mitogen-activated protein kinase 3, sequence (P27361 whole entry): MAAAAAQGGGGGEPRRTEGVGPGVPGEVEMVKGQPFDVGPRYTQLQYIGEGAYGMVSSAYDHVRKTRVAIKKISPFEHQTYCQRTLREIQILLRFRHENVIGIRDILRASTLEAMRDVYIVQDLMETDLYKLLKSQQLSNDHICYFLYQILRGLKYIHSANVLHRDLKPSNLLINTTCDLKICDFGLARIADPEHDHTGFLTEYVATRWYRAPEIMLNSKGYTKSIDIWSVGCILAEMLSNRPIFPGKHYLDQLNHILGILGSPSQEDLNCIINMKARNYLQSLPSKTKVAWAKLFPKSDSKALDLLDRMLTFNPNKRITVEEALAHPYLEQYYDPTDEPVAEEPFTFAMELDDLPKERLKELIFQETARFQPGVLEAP

[8] = biological target: 5'-AMP-activated protein kinase catalytic subunit alpha-2 (Homo sapiens) (UniProt P54646)
5'-AMP-activated protein kinase catalytic subunit alpha-2 (Homo sapiens), sequence (P54646 whole entry, looked up): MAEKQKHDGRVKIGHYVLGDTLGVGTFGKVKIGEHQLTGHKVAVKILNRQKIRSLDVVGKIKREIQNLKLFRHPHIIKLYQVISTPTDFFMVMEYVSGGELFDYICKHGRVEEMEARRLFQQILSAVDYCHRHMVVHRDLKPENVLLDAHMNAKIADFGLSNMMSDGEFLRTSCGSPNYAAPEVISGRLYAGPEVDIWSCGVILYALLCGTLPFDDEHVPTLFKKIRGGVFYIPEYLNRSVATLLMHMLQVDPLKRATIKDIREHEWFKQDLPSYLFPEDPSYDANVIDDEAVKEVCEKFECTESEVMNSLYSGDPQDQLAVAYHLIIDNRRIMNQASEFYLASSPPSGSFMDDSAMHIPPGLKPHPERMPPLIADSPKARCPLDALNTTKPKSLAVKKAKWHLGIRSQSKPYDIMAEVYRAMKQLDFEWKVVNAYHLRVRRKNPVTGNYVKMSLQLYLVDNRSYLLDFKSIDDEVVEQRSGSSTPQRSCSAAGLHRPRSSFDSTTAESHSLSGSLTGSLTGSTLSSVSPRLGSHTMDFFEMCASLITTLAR

SMILES | ΔTm [1] [°C] | ΔTm [2] [°C] | ΔTm [3] [°C] | ΔTm [4] [°C] | ΔTm [5] [°C] | ΔTm [6] [°C] | ΔTm [7] [°C] | ΔTm [8] [°C]
CCCCc1c(-c2ccc(O)cc2)[nH]c2nccnc12 [ALOISINE A] | 2.9 | 0.4 | 1.1 | 2.3 | 4.7 | -0.2 | 0.5 | 2.2
C[S+]([O-])c1ccc(-c2nc(-c3ccc(F)cc3)c(-c3ccncc3)[nH]2)cc1 (centres undefined) [SB-203580] | 0 | 0.3 | -0.5 | -0.4 | -0.1 | -0.1 | 0.1 | -0.9
Cc1ccc(NC(=O)c2cccc(N(C)C)c2)cc1NC(=O)c1ccc(O)cc1 | 0.6 | -0.4 | 0.7 | -0.4 | 0.3 | -0.3 | 0.2 | -0.1
Cl.Cn1cc(C2=C(c3ccc4cc5n(c4c3)CCC(CN)C5)C(=O)NC2=O)c2ccccc21 (centres undefined) | 3.5 | 0 | 1.2 | 0.7 | 2.4 | 0.8 | -0.5 | -0.4
O=C1NC(=O)c2c1c1c3ccccc3n3c1c1c2c2ccccc2n1C1CCC3O1 | -0.4 | 3.9 | 1.5 | -0.5 | 0.2 | -0.1 | -0.2 | 3.9
O=C1c2ccccc2-[n+]2ccc3c([nH]c4ccccc43)c21 [FASCAPLYSIN CHLORIDE] | 1.5 | -2.6 | -0.8 | -0.5 | 0 | -1.2 | 0.3 | 0
Oc1cc(O)cc(/C=C/c2ccc(O)c(O)c2)c1 [PICEATANNOL] | 0.3 | -0.6 | 0.9 | 4.6 | 1.2 | 0.2 | 0.2 | 0.2
COc1cc(OC)c(/C=C2\C(=O)Nc3ccccc32)c(OC)c1 | -0.3 | 0 | 0 | -0.3 | 0.5 | 0.6 | 0 | -0.1
O=C1NC(=O)C(c2cn(CCCn3ccnc3)c3ccccc23)=C1Nc1ccccc1 | 0.5 | 0.6 | 2 | 1.3 | 0.4 | 0.6 | -0.1 | 0.4
O=C1Nc2ccccc2/C1=C\c1ccc[nH]1 | 11 | 5.2 | 3.5 | -0.2 | 3.4 | 0.3 | 0.3 | 3.2
CCOc1ccc(/C=C2/SC(=O)N(CCN)C2=O)cc1 [HIAZOLIDINEDIONE1] | -0.6 | 0.4 | -0.3 | 0.3 | -0.1 | 0.3 | -0.1 | 0.1
O=C1C(Cl)=C(N2C(=O)CCC2=O)C(=O)c2ccccc21 | 0.5 | -1.1 | -1.4 | -7.6 | -1.1 | -0.6 | 1 | 0.6
C/C(O)=C(\C#N)C(=O)Nc1cc(Br)ccc1Br | 0.6 | -0.7 | 0.2 | 0.7 | 1 | 0 | 0.3 | 0.6
Cc1cc(C=C2C(=O)C=CC2=O)cc(C)c1O | -4.6 | 2.6 | 0.4 | 0.6 | 1 | -3.1 | 0.6 | -2.2
NC1=N/C(=C2/CCNC(=O)c3[nH]ccc32)C(=O)N1 [DEBROMOHYMENIALDISINE] | 10.2 | 4.6 | 1.3 | 5.2 | 0.7 | 1.3 | 0.6 | -0.5
NCCNc1ncc(C(N)=O)c(Nc2cccc(C(F)(F)F)c2)n1 | 3.2 | -0.1 | 1 | 3.2 | 0.1 | 3.6 | 0.9 | 0.3
CC(=O)O/N=C1/C(=C2/C(=O)Nc3cc(Br)ccc32)Nc2ccccc21 [6-BROMOINDIRUBIN-3'-ACETOXIME] | 3 | -0.2 | -0.4 | -1.3 | 3.2 | 0.3 | 0 | 2
N#C/C(=C(/N)Sc1ccc(N)cc1)c1ccccc1C(F)(F)F | 0.4 | -0.1 | 1.1 | -0.2 | 0.4 | 0.4 | -0.1 | -0.8
N=C(N)NCCNS(=O)(=O)c1cccc2cnccc12 | 0.6 | 0.1 | -0.3 | 2 | 0.3 | 0.3 | 0.1 | 0.5
CC(C)(C)n1nc(-c2cccc3ccccc23)c2c(N)ncnc21 | 2 | 0.8 | -4.9 | -0.8 | 0.1 | 0.7 | 0.8 | 0
Cc1[nH]c(/C=C2\C(=O)Nc3ccc(S(=O)(=O)N(C)c4cccc(Cl)c4)cc32)c(C)c1C(=O)N1CCN(C)CC1 | 3.3 | -0.7 | 5 | 2.6 | -0.4 | 1.5 | 0.1 | 4
CCOC(=O)c1c(C)[nH]c(/C=C2\C(=O)Nc3ccccc32)c1C | 4.5 | -1.4 | 0.1 | 0 | -3.4 | -1.7 | -0.4 | 0.5
N#CCCc1ccc2c(c1)-c1[nH]c3ccc([N+](=O)[O-])cc3c1CC(=O)N2 [ALSTERPAULLONE 2] | 9.6 | 1.8 | 3.5 | 1.7 | 6.6 | 1.1 | 2.2 | 1
